Measurements: PubChem BioAssay (NCI)
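Following 48 hours of exposure in 96-well plates, responses at five concentrations were used to interpolate endpoints linearly. At the GI50, growth is halved. Definition used: TGI = concentration required for complete inhibition of growth.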

Experiments:
Experiment in all cases: NCI-60 cell line screen, 48 h
CCRF-CEM leukemia = system: CCRF-CEM leukemia
NCI-H522 lung = system: NCI-H522 lung
SF-295 CNS = system: SF-295 CNS
IGROV1 ovarian = system: IGROV1 ovarian
MDA-MB-231 breast = system: MDA-MB-231 breast
A498 renal = system: A498 renal
OVCAR-3 ovarian = system: OVCAR-3 ovarian
SF-268 CNS = system: SF-268 CNS
HS 578T breast = system: HS 578T breast
LOX IMVI melanoma = system: LOX IMVI melanoma

SMILES: O=C1OCC(c2ccc(O)c(O)c2)=C1c1cc(O)c(O)c(O)c1
- GI50 (CCRF-CEM leukemia): 30.4 µM
- TGI (CCRF-CEM leukemia): > 100 µM
- GI50 (NCI-H522 lung): 47.4 µM
- TGI (NCI-H522 lung): > 100 µM
- GI50 (SF-295 CNS): 14.6 µM
- TGI (SF-295 CNS): 30.9 µM
- GI50 (IGROV1 ovarian): 37.4 µM
- TGI (IGROV1 ovarian): > 100 µM
- GI50 (MDA-MB-231 breast): 15.2 µM
- TGI (MDA-MB-231 breast): 31 µM
- GI50 (A498 renal): > 100 µM
- TGI (A498 renal): > 100 µM
- GI50 (OVCAR-3 ovarian): 12.9 µM
- TGI (OVCAR-3 ovarian): 26.5 µM
- GI50 (SF-268 CNS): 63.7 µM
- TGI (SF-268 CNS): > 100 µM
- GI50 (HS 578T breast): 87.9 µM
- TGI (HS 578T breast): > 100 µM
- GI50 (LOX IMVI melanoma): 19.1 µM
- TGI (LOX IMVI melanoma): 36.8 µM

SMILES: CCCC[C@@H]1NC(=O)[C@H](CCCCN)NC(=O)[C@H](CCCNC(=N)N)NC(=O)[C@H](CC(C)C)NC(=O)[C@@H](NC(=O)[C@H](Cc2cccc(Cl)c2)NC(=O)[C@@H]2CCCN2C(=O)[C@@H](NC(C)=O)C(C)C)CCSSC[C@@H](C(=O)N[C@@H](CCCCN)C(=O)N2CCC[C@H]2C(=O)N2CCC[C@H]2C(=O)N[C@@H](CCC(=O)O)C(N)=O)NC(=O)[C@H](Cc2ccccc2)NC(=O)[C@H](CO)NC(=O)[C@H](C)NC(=O)[C@@H]2CCCN2C1=O
- GI50 (CCRF-CEM leukemia): > 50 µM
- TGI (CCRF-CEM leukemia): > 50 µM
- GI50 (NCI-H522 lung): > 50 µM
- TGI (NCI-H522 lung): > 50 µM
- GI50 (SF-295 CNS): > 50 µM
- TGI (SF-295 CNS): > 50 µM
- GI50 (IGROV1 ovarian): > 50 µM
- TGI (IGROV1 ovarian): > 50 µM
- GI50 (MDA-MB-231 breast): > 50 µM
- TGI (MDA-MB-231 breast): > 50 µM
- GI50 (A498 renal): > 50 µM
- TGI (A498 renal): > 50 µM
- GI50 (OVCAR-3 ovarian): > 50 µM
- TGI (OVCAR-3 ovarian): > 50 µM
- GI50 (SF-268 CNS): > 50 µM
- TGI (SF-268 CNS): > 50 µM
- GI50 (HS 578T breast): > 50 µM
- TGI (HS 578T breast): > 50 µM
- GI50 (LOX IMVI melanoma): > 50 µM
- TGI (LOX IMVI melanoma): > 50 µM

SMILES: CC1(C)CCC(S(=O)(=O)c2ccc3c(c2)/C(=N\O)c2cc(S(=O)(=O)N4CCC(O)(c5cccc(C(F)(F)F)c5)CC4)ccc2-3)CC1
- GI50 (CCRF-CEM leukemia): 0.0291 µM
- TGI (CCRF-CEM leukemia): 0.0906 µM
- GI50 (NCI-H522 lung): 0.0198 µM
- TGI (NCI-H522 lung): 0.0452 µM
- GI50 (SF-295 CNS): 0.0272 µM
- TGI (SF-295 CNS): 0.11 µM
- GI50 (IGROV1 ovarian): 0.0491 µM
- TGI (IGROV1 ovarian): 1.07 µM
- GI50 (MDA-MB-231 breast): 0.0217 µM
- TGI (MDA-MB-231 breast): 0.0438 µM
- GI50 (A498 renal): 1.69 µM
- TGI (A498 renal): 3.85 µM
- GI50 (OVCAR-3 ovarian): 0.0211 µM
- TGI (OVCAR-3 ovarian): 0.0442 µM
- GI50 (SF-268 CNS): 0.0198 µM
- TGI (SF-268 CNS): 0.0429 µM
- GI50 (HS 578T breast): 0.0287 µM
- TGI (HS 578T breast): 0.0749 µM
- GI50 (LOX IMVI melanoma): 0.0183 µM
- TGI (LOX IMVI melanoma): 0.0381 µM

SMILES: O=S(=O)(Nc1ccc(-c2nc(-c3cccc(OCCN4CCOCC4)c3)c(-c3ccnc(Br)c3)[nH]2)cc1)c1ccccc1
- GI50 (CCRF-CEM leukemia): 2.89 µM
- TGI (CCRF-CEM leukemia): > 100 µM
- GI50 (NCI-H522 lung): 3.14 µM
- TGI (NCI-H522 lung): > 100 µM
- GI50 (SF-295 CNS): 1.72 µM
- TGI (SF-295 CNS): 4.1 µM
- GI50 (IGROV1 ovarian): 3.98 µM
- TGI (IGROV1 ovarian): > 100 µM
- GI50 (MDA-MB-231 breast): 3.23 µM
- TGI (MDA-MB-231 breast): 63.6 µM
- GI50 (A498 renal): 1.53 µM
- TGI (A498 renal): 6.94 µM
- GI50 (OVCAR-3 ovarian): 4.71 µM
- TGI (OVCAR-3 ovarian): > 100 µM
- GI50 (SF-268 CNS): 4.23 µM
- TGI (SF-268 CNS): > 100 µM
- GI50 (HS 578T breast): 1.47 µM
- TGI (HS 578T breast): 4.37 µM
- GI50 (LOX IMVI melanoma): 1.62 µM
- TGI (LOX IMVI melanoma): 3.42 µM
